From patent publication US11623929B2, “Spirocyclic compounds” (C4 Therapeutics, Inc., priority 2018, dated 2023)
pKd: −log10 of the molar value.

Target: h-Cereblon_DDB1 (hCereblon(M1-L442)_hDDB1(M1-H1140)) (Homo sapiens (Human), UniProt Q96SW2)
Experiment: Fluorescence direct binding (tryptophan fluorescence titration)
Conditions: 20° C., excitation 280 nm, emission 340 nm, assay buffer 50 mM Hepes 7.4 200 mM NaCl, protein 5.0 E−8 M; read-out: Fluorescence h-Cereblon_DDB1 Mean Kd_EQ
Description: Fluorescence Direct Binding Protocol
Determination of the affinities of compounds to protein containing one or more tryptophan is measurable by monitoring the fluorescence emission in direct mode. The measurements depending on the protein available amounts are performed either manually in a cuvette on ISS-PC1 photon counting spectrofluorometer or automatically in well plates on a fluorescence plate reader device. Fluorescence titrations are performed at 20° C. in the chosen binding assay buffer by using a defined constant protein concentration against ligand concentration variations. Small aliquots of known ligand concentration solubilized in DMSO were added and the fluorescence, excited at 280 nm, was recorded at 340 nm. The fluorescence intensity was corrected for protein dilution and for the filter effect (Birdsall, B., et al. (1983). Anal. Biochem. 132, 353-361). The corrected fluorescence intensity was plotted against the ligand concentration and fitted using a four-parameter sigmoidal function, from which the equilibrium dissociation constant Kd was computed using the law of mass action assuming a 1:1 protein-ligand complex (Eftink, Methods Enzymol. 1997; 278:221-57).
The Fluorescence Direct Binding Protocol Process includes:
• 1) Optimization of measurement parameters to minimize protein consumption and to minimize the dilution effect and the DMSO content • 2) Titration measurements of the protein against ligand by at least 12 titration steps to obtain a good s-curve fit • 3) Repeat the same titration measurements with the ligand alone to enable correction • 4) Check the stability of the protein once by titration against DMSO alone • 5) Determination of the molar extinction coefficients of the ligand at 280 and 340 nm with help of an UV-spectrophotometer • 6) Use Excel template for the correction of the measured raw data • 7) Use GraphPad Prism software for the quadratic binding fit and the KD evaluation.

Sequence of h-Cereblon_DDB1 (hCereblon(M1-L442)_hDDB1(M1-H1140)) (Q96SW2 whole entry): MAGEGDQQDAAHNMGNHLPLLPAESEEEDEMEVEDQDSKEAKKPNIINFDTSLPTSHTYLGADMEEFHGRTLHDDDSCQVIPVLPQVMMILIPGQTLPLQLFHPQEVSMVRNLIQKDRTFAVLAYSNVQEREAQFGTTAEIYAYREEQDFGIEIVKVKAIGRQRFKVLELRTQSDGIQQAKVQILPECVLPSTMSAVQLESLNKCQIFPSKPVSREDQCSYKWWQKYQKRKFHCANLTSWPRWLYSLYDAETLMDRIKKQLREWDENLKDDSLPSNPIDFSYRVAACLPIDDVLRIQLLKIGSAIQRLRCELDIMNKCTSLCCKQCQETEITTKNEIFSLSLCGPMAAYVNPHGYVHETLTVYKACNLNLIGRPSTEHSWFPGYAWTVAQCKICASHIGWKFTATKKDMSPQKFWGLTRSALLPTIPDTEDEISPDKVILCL
Sequence of h-Cereblon_DDB1 (hCereblon(M1-L442)_hDDB1(M1-H1140)) (Q16531 whole entry partner): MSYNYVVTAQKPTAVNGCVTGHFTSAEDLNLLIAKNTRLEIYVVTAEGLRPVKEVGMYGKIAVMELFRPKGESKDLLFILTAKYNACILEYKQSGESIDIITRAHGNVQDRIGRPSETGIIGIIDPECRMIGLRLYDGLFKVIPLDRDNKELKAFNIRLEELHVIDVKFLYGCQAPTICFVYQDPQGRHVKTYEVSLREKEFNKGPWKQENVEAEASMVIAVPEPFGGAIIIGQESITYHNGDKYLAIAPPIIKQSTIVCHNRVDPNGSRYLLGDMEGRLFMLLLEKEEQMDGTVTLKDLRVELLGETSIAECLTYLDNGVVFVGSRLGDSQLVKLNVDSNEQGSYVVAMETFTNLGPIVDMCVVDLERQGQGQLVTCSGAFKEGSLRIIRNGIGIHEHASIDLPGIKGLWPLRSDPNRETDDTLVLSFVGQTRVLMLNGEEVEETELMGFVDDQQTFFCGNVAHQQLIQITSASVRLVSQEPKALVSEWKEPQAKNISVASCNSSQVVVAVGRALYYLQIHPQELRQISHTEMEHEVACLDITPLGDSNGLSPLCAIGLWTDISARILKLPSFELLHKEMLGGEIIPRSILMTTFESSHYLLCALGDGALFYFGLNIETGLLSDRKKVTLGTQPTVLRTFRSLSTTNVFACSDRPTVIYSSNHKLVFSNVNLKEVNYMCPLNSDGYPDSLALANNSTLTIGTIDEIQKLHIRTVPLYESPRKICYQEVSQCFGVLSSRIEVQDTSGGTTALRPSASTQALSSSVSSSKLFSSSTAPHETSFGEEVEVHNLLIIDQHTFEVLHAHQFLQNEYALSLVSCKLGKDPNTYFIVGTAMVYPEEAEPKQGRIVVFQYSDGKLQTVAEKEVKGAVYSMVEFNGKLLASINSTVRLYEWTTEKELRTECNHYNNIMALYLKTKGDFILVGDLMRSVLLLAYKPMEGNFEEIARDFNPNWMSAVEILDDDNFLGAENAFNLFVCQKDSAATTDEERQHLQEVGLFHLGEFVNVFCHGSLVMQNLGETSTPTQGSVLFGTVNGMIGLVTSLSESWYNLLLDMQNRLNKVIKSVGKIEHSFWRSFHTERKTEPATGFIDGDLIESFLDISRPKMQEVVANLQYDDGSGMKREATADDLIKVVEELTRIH

Row | Compound | pKd
1 | O=C1NC(=O)C2(CCN(C(=O)c3cnn4ccccc34)C2)N1 (stereo not drawn) [Example 4, 7-(Pyrazolo[1,5-a]pyridine-3-carbonyl)-1,3,7-triazaspiro[4.4]nonane-2,4-dione] | 7.43
2 | O=C1NC(=O)C2(CCN(c3nc4ccccc4s3)C2)N1 (stereo not drawn) [Example 3, 7-(Benzo[d]thiazol-2-yl)-1,3,7-triazaspiro[4.4]nonane-2,4-dione] | 7.51
3 | O=C1NC(=O)C2(CCN(C(=O)c3ccc4scnc4c3)C2)N1 (stereo not drawn) [Example 15, 7-(Benzo[d]thiazole-5-carbonyl)-1,3,7-triazaspiro[4.4]nonane-2,4-dione] | 7.64
4 | CC(=O)Nc1cccc(C(=O)N2CCC3(C2)NC(=O)NC3=O)c1 (stereo not drawn) [Example 6, N-(3-(2,4-Dioxo-1,3,7-triazaspiro[4.4]nonane-7-carbonyl)phenyl)acetamide] | 8.00
5 | CC(=O)Nc1ccc(C(=O)N2CCC3(C2)NC(=O)NC3=O)cc1 (stereo not drawn) [Example 7, N-(4-(2,4-Dioxo-1,3,7-triazaspiro[4.4]nonane-7-carbonyl)phenyl)acetamide] | 6.79
6 | O=C1NC(=O)C2(CCN(C(=O)[C@H]3CCCc4ccccc43)C2)N1 (stereo partly drawn) [Example 2, 7-((S)-1,2,3,4-Tetrahydronaphthalene-1-carbonyl)-1,3,7-triazaspiro[4.4]nonane-2,4-dione] | 8.52
7 | O=C1NC(=O)C2(CCN(C(=O)c3ccc4scnc4c3)C2)N1 (stereo not drawn) [Example 9, 7-(Benzo[d]thiazole-5-carbonyl)-1,3,7-triazaspiro[4.4]nonane-2,4-dione] | 7.49
8 | O=C1NC(=O)C2(CCN(c3nc4ncccc4s3)C2)N1 (stereo not drawn) [Example 8, 7-(Thiazolo[4,5-b]pyridin-2-yl)-1,3,7-triazaspiro[4.4]nonane-2,4-dione] | 8.15
9 | COC(=O)c1ccc(N2CCC3(C2)NC(=O)NC3=O)nc1 (stereo not drawn) [Example 5, Methyl 6-(2,4-dioxo-1,3,7-triazaspiro[4.4]nonan-7-yl)nicotinate] | 8.70
10 | O=C1NC(=O)C2(CCN(C(=O)c3ccc4scnc4c3)C2)N1 (stereo not drawn) [Example 14, 7-(Benzo[d]thiazole-5-carbonyl)-1,3,7-triazaspiro[4.4]nonane-2,4-dione] | 7.59

Results, then the compound that gave them:

Row | pKd | Compound
11 | 7.82 | O=C1CC2(CCN(C(=O)c3ccccc3)C2)C(=O)N1 (stereo not drawn) [Example 13, 7-Benzoyl-2,7-diazaspiro[4.4]nonane-1,3-dione]
12 | 8.22 | O=C1CC2(CCN(C(=O)c3cnn4ccccc34)C2)C(=O)N1 (stereo not drawn) [Example 12, 7-(Pyrazolo[1,5-a]pyridine-3-carbonyl)-2,7-diazaspiro[4.4]nonane-1,3-dione]
13 | 7.74 | O=C1CC2(CCN(c3nc4ccccc4s3)C2)C(=O)N1 (stereo not drawn) [Example 11, 7-(Benzo[d]thiazol-2-yl)-2,7-diazaspiro[4.4]nonane-1,3-dione]
14 | 8.40 | O=C1NC(=O)C2(CCN(C(=O)c3ccccc3)C2)N1 (stereo not drawn) [Example 1, 7-Benzoyl-1,3,7-triazaspiro[4.4]nonane-2,4-dione]
15 | 8.00 | COC(=O)c1ccc(N2CCC3(CC(=O)NC3=O)C2)nc1 (stereo not drawn) [Example 10, Methyl 6-(6,8-dioxo-2,7-diazaspiro[4.4]nonan-2-yl)nicotinate]
